Experimental findings from ChEMBL document CHEMBL1909046, “DrugMatrix in vitro pharmacology data” are described below.

Series [1] can be described thus: DRUGMATRIX: Sodium/nucleoside co-transporter radioligand binding (ligand: nitrobenzylthioinosine). The class given is cell membranes, Cavia porcellus, Dunkin-Hartley, Cerebral cortex, Membrane. Conditions: Not Active = under 50% inhibition at 10 µM.
The target of series [2] is Aldo-keto reductase family 1 member B1 (Rattus norvegicus, UniProt P07943). The series can be described thus: biochemical. The class given is tissue-based, Lens of camera-type eye.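 Note: inhibition of aldose reductase enzyme activity, measured with DL-glyceraldehyde as the substrate; in other assays of this panel Not Active means under 50% inhibition at 10 µM.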
Another series has as its target Histamine H2 receptor (Homo sapiens, UniProt P25021). The series is classed as cell membranes, CHO-K1, Membrane. Particulars: for Ki: read-out: Ki. For all read-outs here: in other assays of this panel Not Active means under 50% inhibition at 10 µM.
Another series addresses Cytochrome P450 2C19 (Homo sapiens, UniProt P33261). Particulars: bti-tn-5b1-4.
For series [3], the target named is T1, Receptor-type tyrosine-protein phosphatase C (Homo sapiens, UniProt P08575).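 Note: inhibition of CD45 enzyme activity measured using DiFMUP as substrate; in other assays of this panel Not Active means under 50% inhibition at 10 µM.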
T1 sequence (P08575 whole entry): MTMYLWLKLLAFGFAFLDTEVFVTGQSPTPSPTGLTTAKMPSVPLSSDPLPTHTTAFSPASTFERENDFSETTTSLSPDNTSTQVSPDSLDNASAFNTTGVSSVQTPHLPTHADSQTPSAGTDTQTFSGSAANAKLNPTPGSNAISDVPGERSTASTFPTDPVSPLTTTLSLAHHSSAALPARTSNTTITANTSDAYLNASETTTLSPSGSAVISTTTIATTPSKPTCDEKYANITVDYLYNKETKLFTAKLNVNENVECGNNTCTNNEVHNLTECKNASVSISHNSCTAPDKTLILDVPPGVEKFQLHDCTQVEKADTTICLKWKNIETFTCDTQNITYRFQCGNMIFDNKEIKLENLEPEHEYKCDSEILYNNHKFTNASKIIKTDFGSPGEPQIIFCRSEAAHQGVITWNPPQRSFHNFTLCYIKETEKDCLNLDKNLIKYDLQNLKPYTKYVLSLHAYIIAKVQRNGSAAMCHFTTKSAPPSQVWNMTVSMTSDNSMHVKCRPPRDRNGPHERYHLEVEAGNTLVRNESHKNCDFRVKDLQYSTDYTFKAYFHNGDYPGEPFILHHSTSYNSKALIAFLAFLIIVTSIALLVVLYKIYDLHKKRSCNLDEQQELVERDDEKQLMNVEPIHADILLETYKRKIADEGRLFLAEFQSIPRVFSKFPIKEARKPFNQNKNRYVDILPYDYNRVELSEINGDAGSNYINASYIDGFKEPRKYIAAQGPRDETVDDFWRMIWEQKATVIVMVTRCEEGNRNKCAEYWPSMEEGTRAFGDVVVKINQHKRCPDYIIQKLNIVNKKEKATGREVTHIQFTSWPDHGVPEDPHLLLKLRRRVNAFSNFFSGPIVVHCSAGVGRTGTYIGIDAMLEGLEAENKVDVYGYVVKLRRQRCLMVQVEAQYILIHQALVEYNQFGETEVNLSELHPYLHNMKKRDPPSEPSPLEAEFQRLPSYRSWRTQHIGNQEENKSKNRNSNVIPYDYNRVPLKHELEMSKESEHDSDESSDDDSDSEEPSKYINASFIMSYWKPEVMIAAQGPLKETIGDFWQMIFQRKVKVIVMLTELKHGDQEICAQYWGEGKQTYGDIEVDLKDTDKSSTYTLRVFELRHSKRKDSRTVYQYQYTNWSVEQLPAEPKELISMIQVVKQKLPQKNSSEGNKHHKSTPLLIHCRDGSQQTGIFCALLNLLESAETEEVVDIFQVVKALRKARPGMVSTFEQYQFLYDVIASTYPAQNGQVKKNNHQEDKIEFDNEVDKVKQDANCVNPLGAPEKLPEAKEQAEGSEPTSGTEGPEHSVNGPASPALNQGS
Also noted: species or system Escherichia coli.

A further series deals with Cannabinoid receptor 1 (Homo sapiens, UniProt P21554). The series is classed as cell membranes, Chem-1, Membrane.
Sequence of Cannabinoid receptor 1 (P21554 whole entry): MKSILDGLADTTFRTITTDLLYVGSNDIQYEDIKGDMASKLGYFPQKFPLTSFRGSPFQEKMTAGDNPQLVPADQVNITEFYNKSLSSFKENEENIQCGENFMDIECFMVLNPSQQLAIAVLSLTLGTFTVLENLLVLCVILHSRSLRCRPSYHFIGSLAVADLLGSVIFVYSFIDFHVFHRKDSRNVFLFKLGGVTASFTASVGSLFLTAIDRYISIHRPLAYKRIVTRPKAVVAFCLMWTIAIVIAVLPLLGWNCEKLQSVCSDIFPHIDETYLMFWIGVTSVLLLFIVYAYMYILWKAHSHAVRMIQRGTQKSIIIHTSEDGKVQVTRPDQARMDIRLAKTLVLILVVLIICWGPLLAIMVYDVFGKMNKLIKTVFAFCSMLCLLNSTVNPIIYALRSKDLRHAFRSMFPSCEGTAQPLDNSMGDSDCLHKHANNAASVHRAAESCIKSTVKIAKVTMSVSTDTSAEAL
The target of a further series is Cytochrome P450 3A4 (Homo sapiens, UniProt P08684). Conditions: bti-tn-5b1-4. Note: in other assays of this panel Not Active means under 50% inhibition at 10 µM.
Sequence of Cytochrome P450 3A4 (P08684 whole entry): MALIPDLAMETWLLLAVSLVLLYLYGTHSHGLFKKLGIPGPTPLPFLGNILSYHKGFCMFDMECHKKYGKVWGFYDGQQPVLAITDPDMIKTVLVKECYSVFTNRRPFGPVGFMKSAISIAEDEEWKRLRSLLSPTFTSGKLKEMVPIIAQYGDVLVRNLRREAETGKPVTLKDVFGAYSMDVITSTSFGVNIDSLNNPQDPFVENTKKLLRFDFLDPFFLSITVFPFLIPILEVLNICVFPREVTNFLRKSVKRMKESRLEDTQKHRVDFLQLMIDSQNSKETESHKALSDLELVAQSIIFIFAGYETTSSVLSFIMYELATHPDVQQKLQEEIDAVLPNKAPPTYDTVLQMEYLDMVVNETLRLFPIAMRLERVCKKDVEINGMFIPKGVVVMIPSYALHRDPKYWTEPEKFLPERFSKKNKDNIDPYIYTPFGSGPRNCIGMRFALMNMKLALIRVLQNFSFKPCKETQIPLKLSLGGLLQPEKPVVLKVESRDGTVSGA
Series [4] in a line: DRUGMATRIX: Interleukin IL-1 radioligand binding (ligand: [125I] interleukin 1beta). The class given is cell membranes, Membrane. Particulars: nih3t3; Not Active = under 50% inhibition at 10 µM.

Sequence of Cytochrome P450 2C19 (P33261 whole entry): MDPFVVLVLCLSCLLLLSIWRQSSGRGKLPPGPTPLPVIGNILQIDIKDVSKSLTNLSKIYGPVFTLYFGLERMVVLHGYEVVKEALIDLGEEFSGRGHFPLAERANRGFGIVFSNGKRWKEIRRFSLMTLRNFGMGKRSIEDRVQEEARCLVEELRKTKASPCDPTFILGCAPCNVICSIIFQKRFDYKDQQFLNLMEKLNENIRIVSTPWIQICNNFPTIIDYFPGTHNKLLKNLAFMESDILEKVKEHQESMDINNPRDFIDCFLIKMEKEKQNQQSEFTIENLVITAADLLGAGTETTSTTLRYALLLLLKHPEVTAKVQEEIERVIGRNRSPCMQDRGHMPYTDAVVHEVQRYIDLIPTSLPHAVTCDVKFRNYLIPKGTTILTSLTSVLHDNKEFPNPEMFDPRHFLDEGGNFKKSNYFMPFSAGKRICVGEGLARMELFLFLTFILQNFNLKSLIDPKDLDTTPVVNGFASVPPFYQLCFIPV
Sequence of Histamine H2 receptor (P25021 whole entry): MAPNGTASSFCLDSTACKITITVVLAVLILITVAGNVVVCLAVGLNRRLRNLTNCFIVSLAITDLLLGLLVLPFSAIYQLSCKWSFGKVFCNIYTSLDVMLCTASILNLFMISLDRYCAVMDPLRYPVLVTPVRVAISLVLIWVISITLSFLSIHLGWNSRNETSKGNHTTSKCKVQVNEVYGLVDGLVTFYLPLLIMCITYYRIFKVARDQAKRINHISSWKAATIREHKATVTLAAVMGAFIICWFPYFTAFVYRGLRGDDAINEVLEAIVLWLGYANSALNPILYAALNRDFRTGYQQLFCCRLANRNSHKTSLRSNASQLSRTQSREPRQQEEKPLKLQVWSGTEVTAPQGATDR

Usually IC50 stands for the point on the concentration scale where inhibition reaches its midpoint. For orientation: Ki means the dissociation constant of the complex between target and ligand, obtained from inhibition or displacement. Regarding `CC1=C(CC(=O)O)c2cc(F)ccc2/C1=C\c1ccc([S+](C)[O-])cc1` (configuration not stated), the IC50 entry in series [1] was “Not Active”; in series [2] (read-out: IC50) it was 435 nM; at Histamine H2 receptor (cho-k1) it was “Not Active”; at Cytochrome P450 2C19, “Not Active”; in series [3], “Not Active”; against Cannabinoid receptor 1 (chem-1), “Not Active”. Further, the IC50 entry (on Cytochrome P450 3A4; in series [4]) was “Not Active” in each case. Besides, the Ki entry (in series [1]; at Cytochrome P450 2C19; on Cytochrome P450 3A4; in series [4]) was “Not Active” throughout.
On to `N[C@H](CSC(=S)NCc1ccccc1)C(=O)O`, for which the IC50 entry (in series [1]; in series [2]; against Histamine H2 receptor (cho-k1); at Cytochrome P450 2C19; in series [3]; against Cannabinoid receptor 1 (chem-1)) was “Not Active” each time. Moreover, the IC50 result (against Cytochrome P450 3A4; in series [4]) was “Not Active” in each case. Besides, the Ki entry (in series [1]; at Cytochrome P450 2C19; at Cytochrome P450 3A4; in series [4]) was “Not Active” in each case.
Turning to `CC(=O)N[C@@H]1[C@H](Oc2c3cc4cc2Oc2ccc(cc2Cl)[C@@H](O[C@@H]2O[C@@H](CO)[C@@H](O)[C@H](O)[C@@H]2NC(C)=O)[C@@H]2NC(=O)[C@H](NC(=O)[C@@H]4NC(=O)[C@H]4NC(=O)[C@@H](Cc5ccc(c(Cl)c5)O3)NC(=O)[C@H](N)c3ccc(O)c(c3)Oc3cc(O)cc4c3)c3ccc(O)c(c3)-c3c(O[C@H]4O[C@H](CO)[C@@H](O)[C@@H](O)[C@@H]4O)cc(O)cc3[C@@H](C(=O)O)NC2=O)O[C@@H](CO)[C@@H](O)[C@@H]1O`, the IC50 result (in series [1]; in series [2]; at Histamine H2 receptor (cho-k1); against Cytochrome P450 2C19; in series [3]; against Cannabinoid receptor 1 (chem-1)) was “Not Active” throughout. Besides, the IC50 result (at Cytochrome P450 3A4; in series [4]) was “Not Active” in each case. The Ki entry (in series [1]; at Cytochrome P450 2C19; on Cytochrome P450 3A4; in series [4]) was “Not Active” throughout.
For `Clc1ccc2c(c1)C(N1CCNCC1)=Nc1ccccc1O2` [AMOXAPINE], the IC50 entry (in series [2]; at Histamine H2 receptor (cho-k1); against Cytochrome P450 2C19; in series [3]; at Cannabinoid receptor 1 (chem-1); at Cytochrome P450 3A4) was “Not Active” throughout. In addition, the Ki entry on Cytochrome P450 2C19 and on Cytochrome P450 3A4 was “Not Active” in each case.
As to `COc1cc2c(c(OC)c1OC)-c1ccc(OC)c(=O)cc1[C@@H](NC(C)=O)CC2` [COLCHICINE], the IC50 entry (in series [2]; on Histamine H2 receptor (cho-k1); against Cytochrome P450 2C19; in series [3]; against Cannabinoid receptor 1 (chem-1)) was “Not Active” each time. The Ki entry at Cytochrome P450 2C19 is recorded as “Not Active”.
Consider `CN1CCC(=C2c3ccccc3C=Cc3ccccc32)CC1` [CYPROHEPTADINE], for which the IC50 result is “Not Active” in series [2]; 198 nM on Histamine H2 receptor (read-out: IC50); “Not Active” against Cytochrome P450 2C19; “Not Active” in series [3]; “Not Active” on Cannabinoid receptor 1 (chem-1); “Not Active” against Cytochrome P450 3A4. The Ki on Histamine H2 receptor was 195 nM; at Cytochrome P450 2C19, “Not Active”; on Cytochrome P450 3A4, “Not Active”.
As to `CC/C(=C(/CC)c1ccc(O)cc1)c1ccc(O)cc1` [DIETHYLSTILBESTROL], the IC50 entry (in series [2]; on Histamine H2 receptor (cho-k1); against Cytochrome P450 2C19; in series [3]; at Cannabinoid receptor 1 (chem-1); against Cytochrome P450 3A4) was “Not Active” in each case. In addition, the Ki entry on Cytochrome P450 2C19 and on Cytochrome P450 3A4 was “Not Active” each time.
Consider `CC(=O)N1CCN(c2ccc(OCC3COC(Cn4ccnc4)(c4ccc(Cl)cc4Cl)O3)cc2)CC1` (configuration not stated) [KETOCONAZOLE], for which the IC50 in series [1] (read-out: IC50) was 4410 nM; in series [2], “Not Active”; on Histamine H2 receptor (read-out: IC50), 21900 nM; against Cytochrome P450 2C19 it was “Not Active”; in series [3], “Not Active”; against Cannabinoid receptor 1 (chem-1), “Not Active”. Also, the IC50 result in series [4] is on record as “Not Active”. The Ki in series [1] (read-out: Ki) was 1510 nM; at Histamine H2 receptor, 21500 nM; on Cytochrome P450 2C19 it was “Not Active”; in series [4] it was “Not Active”.
On to `C=CCN1CC[C@]23c4c5ccc(O)c4O[C@H]2C(=O)CC[C@@]3(O)[C@H]1C5` [NALOXONE], for which the IC50 result (in series [2]; on Histamine H2 receptor (cho-k1); in series [3]; at Cannabinoid receptor 1 (chem-1)) was “Not Active” in each case.
`COCCOC(=O)C1=C(C)NC(C)=C(C(=O)OC(C)C)C1c1cccc([N+](=O)[O-])c1` (configuration not stated) [NIMODIPINE]: the IC50 in series [1] (read-out: IC50) is 1270 nM; in series [2] it was “Not Active”; against Histamine H2 receptor (cho-k1), “Not Active”; in series [3] it was “Not Active”; on Cannabinoid receptor 1 (read-out: IC50), 1740 nM; in series [4] it was “Not Active”. Moreover, the Ki is 433 nM in series [1] (read-out: Ki), 1370 nM at Cannabinoid receptor 1 (read-out: Ki) and “Not Active” in series [4].
As to `CC(C)NCC(O)COc1cccc2ccccc12` (configuration not stated) [PROPRANOLOL], the IC50 entry (in series [2]; against Histamine H2 receptor (cho-k1); against Cytochrome P450 2C19; in series [3]; at Cannabinoid receptor 1 (chem-1); on Cytochrome P450 3A4) was “Not Active” in each case. Also, the Ki entry at Cytochrome P450 2C19 and on Cytochrome P450 3A4 was “Not Active” each time.
Regarding `O=C(c1ccc(OCCN2CCCCC2)cc1)c1c(-c2ccc(O)cc2)sc2cc(O)ccc12` [RALOXIFENE], the IC50 result (in series [1]; in series [2]; at Histamine H2 receptor (cho-k1); in series [3]; against Cannabinoid receptor 1 (chem-1); at Cytochrome P450 3A4) was “Not Active” in each case. For the same compound, in series [4], the IC50 entry is “Not Active”. The Ki result (in series [1]; on Cytochrome P450 3A4; in series [4]) was “Not Active” in each case.
In the case of `CC(C)c1nc(CN(C)C(=O)N[C@H](C(=O)N[C@@H](Cc2ccccc2)C[C@H](O)[C@H](Cc2ccccc2)NC(=O)OCc2cncs2)C(C)C)cs1` [RITONAVIR], the IC50 entry (in series [1]; in series [2]; against Histamine H2 receptor (cho-k1); in series [3]; against Cannabinoid receptor 1 (chem-1); in series [4]) was “Not Active” each time. For the same compound, the Ki entry in series [1] and in series [4] was “Not Active” in each case.
Consider `CC[C@]1(O)C[C@@H]2CN(CCc3c([nH]c4ccccc34)[C@@](C(=O)OC)(c3cc4c(cc3OC)N(C)[C@H]3[C@@](O)(C(=O)OC)[C@H](OC(C)=O)[C@]5(CC)C=CCN6CC[C@]43[C@@H]65)C2)C1` [VINBLASTINE], for which the IC50 entry (in series [1]; in series [2]; against Histamine H2 receptor (cho-k1); in series [3]; against Cannabinoid receptor 1 (chem-1); on Cytochrome P450 3A4) was “Not Active” each time. Moreover, the IC50 result in series [4] is recorded as “Not Active”. For the same compound, the Ki entry (in series [1]; at Cytochrome P450 3A4; in series [4]) was “Not Active” each time.
As for `C[C@@H](N)[C@H]1CC[C@H](C(=O)Nc2ccncc2)CC1` [Y-27632], the IC50 entry (in series [1]; in series [2]; against Histamine H2 receptor (cho-k1); in series [3]; at Cannabinoid receptor 1 (chem-1); against Cytochrome P450 3A4) was “Not Active” each time. In addition, the IC50 result in series [4] is “Not Active”. The Ki result (in series [1]; on Cytochrome P450 3A4; in series [4]) was “Not Active” throughout.
